Source: patent US10683453B2, “Organic compounds with soluble groups” (Merck Patent GmbH, priority 2014, dated 2020)

Assay: Determination of solubility in toluene
Format: physicochemical
Details: stirred at 60° C. for 1 h, cooled to room temperature, yes = clear solution lacking any large particles
Experimental: Determination of Solubility
In order to examine whether a material has a toluene solubility of 10 mg/ml or more, the procedure is as follows: 20 mg of material in solid form are initially charged in a sample bottle. At room temperature (20° C.), 2 ml of toluene are added. The bottle is closed and the contents are stirred at 60° C. on a heatable magnetic stirrer for 1 h. In the course of this, good thermal contact is ensured by means of an aluminium block having holes into which the bottles fit exactly. After 1 h, the bottle is removed and left to cool to room temperature. If a clear solution lacking any large particles is present in the bottle, at least 10 mg/ml of the material are soluble in toluene.
Solubilities with other solubility limits are determined in entirely the same way. The starting weight is also matched to 2 ml of solvent.

SMILES	Solubility in toluene > 2 mg/ml	Solubility in toluene > 5 mg/ml	Solubility in toluene > 10 mg/ml
CCCCCCc1ccc2c(c1)c1cc(CCCCCC)ccc1n2-c1c(C#N)c(-n2c3ccc(CCCCCC)cc3c3cc(CCCCCC)ccc32)c(C#N)c(-n2c3ccc(CCCCCC)cc3c3cc(CCCCCC)ccc32)c1C#N [Compound 19d]	yes	yes	yes
N#CC(C#N)=C1c2ccccc2C2(c3ccccc31)c1ccccc1N(c1ccccc1)c1ccccc12 [reference compound]	yes	no	no
CCCCCCc1cc(CCCCCC)cc(N2c3ccccc3C3(c4ccccc4C(=C(C#N)C#N)c4ccccc43)c3ccccc32)c1 [Compound 9a]	yes	yes	yes
N#CC(C#N)=C1c2ccccc2C2(c3ccccc31)c1ccccc1N(c1c(-c3ccccc3)cc(-c3ccccc3)cc1-c1ccccc1)c1ccccc12 [Compound 9e]	yes	yes	no

The next lines start with the values.

Solubility in toluene > 2 mg/ml	Solubility in toluene > 5 mg/ml	Solubility in toluene > 10 mg/ml	SMILES
yes	yes	no	N#Cc1ccc2c(c1)C1(c3cc(C#N)ccc3-2)c2ccccc2N(c2cc(-c3ccccc3)cc(-c3ccccc3)c2)c2ccccc21 [Compound 6a, 2′,7′-Cyano-10H-terphenyl-10H-spiro(acridine-9,9′-fluorene)]
yes	no	no	N#Cc1c(-n2c3ccccc3c3ccccc32)c(C#N)c(-n2c3ccccc3c3ccccc32)c(-n2c3ccccc3c3ccccc32)c1-n1c2ccccc2c2ccccc21 [reference compound]
no	no	no	N#Cc1ccc2c(c1)C1(c3cc(C#N)ccc3-2)c2ccccc2N(c2ccccc2)c2ccccc21 [reference compound]
